From patent US6844466B2, “Alkyl urea retinoid agonists” (Syntex (U.S.A.) LLC, priority 2001, dated 2005)
“And” between values parts separate entries of the source, which are not always exact repeats. Equal values may be shown once.

Key:
[1] = tested on: retinoic acid receptor (α, β and γ); experiment: Transactivation of retinoic acid receptors; assay type: cell-based; conditions: compared to prior art compounds 39 and 40
Excerpt: Transactivation, which is the ability of a retinoid to activate gene transcription when gene transcription is initiated by the binding of a ligand to the particular retinoic acid receptor being tested, may be determined by using methods described in the art (Apfel et al., Proc. Natl. Acad. Sci., 1992, 89, 7129; Bernard et al., Biochem. And Biophys. Res. Comm., 1992, 186, 977 which is herein incorporated by reference).

[2] = Effect of RAR agonists on plasma triglyceride levels; assay type: in vivo, male, Wistar Han rats; conditions: rat, oral
Excerpt: Sixty male, Wistar Han rats (Charles Rivers Laboratories) were used in this experiment. The received weight of the rats varied between 200-250 gm. The compounds used in this study were formulated in Miglyol 812, Batch 000719, Product #6330 (Condea) with 0.01% BHA and 0.01% BHT. Three RAR agonists, illustrated below, were compared with regards to their effects on triglyceride levels. Compounds 39 and 40 are prior art compounds (see, Hashimoto, Yuichi; Kagechika, Hiroyuki; Kawachi, Emiko; Fukasawa, Hiroshi; Saito, Go; Shudo, Koichi. “Evaluation of differentiation-inducing activity of retinoids on human leukemia cell lines HL-60 and NB4” Biol. Pharm. Bull. (1996), 19(10), 1322-1328; and Takagi, Kanji; Suganuma, Masami; Kagechika, Hiroyuki; Shudo, Koichi; Ninomiya, Mitsuo; Muto, Yasutoshi; Fujiki, Hirota. “Inhibition of ornithine decarboxylase induction by retinobenzoic acids in relation to their binding affinities to cellular retinoid-binding proteins” J. Cancer Res. Clin. Oncol. (1988), 114(3), 221-4, while compound 27 is a compound prepared in Example 7, herein.
Animals were dosed with compounds 27, 39 and 40 or vehicle for two weeks (one 1.0 mL dose a day, total of 10 doses) by oral administration. Doses were 0.3 mg/kg, 1 mg/kg and 3 mg/kg. Animals were weighed twice a week for monitoring gross toxicity (% weight change and mucutaneous).
Animals were fasted for at least 4 hours before terminal blood collection. At the end of the experiment the animals were placed under deep anesthesia using pentobarbital ip (30-40 mg). Five to six ml of blood was collected via cardiac puncture for blood chemistry (Quality Clinical Lab, Mountain View, Calif.) and PK analysis (terminal). Animals were euthanized by exsanguination from the abdominal aorta or cervical dislocation. Plasma was collected and stored at −20
Quantitation of triglycerides contained in rat plasma may be performed using established procedures. […] Hydrogen peroxide may be quantitated […] in a Hitachi 911 Chemistry Analyzer. […]

[3] = tested on: rat model of elastase-induced emphysema; experiment: Alveolar repair in the rat model of elastase-induced emphysema; assay type: in vivo, male Sprague Dawley rats; conditions: oral once per day, lower dosage levels (0.01 or 0.001 mg/kg), p≦0.05, FIG. 1
Excerpt: Compounds of the invention may be evaluated for their effects on alveolar repair in the rat model of elastase-induced emphysema (Massaro et al., Nature, 1997, Vol. 3, No. 6: 675; Massaro et al., U.S. Pat. No. 5,998,486). Preferably, animals are divided into treatment groups of approximately eight. Lung inflammation and alveolar damage may be induced in male Sprague Dawley rats by a single instillation of about 2 U/gram body mass of pancreatic elastase (porcine derived, Calbiochem).
Animals may be treated with a compound of the invention formulated Miglyol at convenient oral dosage ranges (preferably, between about 10.0 mg/kg and 0.0001 mg/kg) and will be dosed orally once per day starting 21 days post injury. Control groups are challenged with elastase and 21 days later are treated with vehicle (Miglyol) for 14 days. Animals were sacrificed 24 hours after the last dose by exsanguination under deep anesthesia. Blood was collected at time of exsanguination for analysis.
The lungs are inflated with 10% neutral buffered formalin by intratracheal instillation at a constant rate (1 ml/gram body mass/min). […] The mean value/treatment group may be determined by summing the average area/rat for all eight rats/treatment groups and repair of elastase damage expressed as percentage of repair relative to the elastase+vehicle treated group from the following calculation: […]

CCCCCCN(C(=O)Nc1ccc(C(=O)O)cc1)c1ccc2c(c1)C(C)(C)CCC2(C)C [Compound 13, 4-[3-hexyl-3-(5,5,8,8-tetramethyl-5,6,7,8-tetrahydro-naphthalen-2-yl)-ureido]-benzoic acid] gave a melting point of 176 to 177 °C.

With CCCCCCCCN(C(=O)Nc1ccc(C(=O)O)cc1)c1ccc2c(c1)C(C)(C)CCC2(C)C [Compound 25, 4-[3-octyl-3-(5,5,8,8-tetramethyl-5,6,7,8-tetrahydro-naphthalen-2-yl)-ureido]-benzoic acid] the melting point was 166 to 167 °C and 165.8 to 167.2 °C.

For CCCCCN(C(=O)Nc1ccc(C(=O)O)cc1)c1ccc2c(c1)C(C)(C)CCC2(C)C [Compound 27, 4-[3-pentyl-3-(5,5,8,8-tetramethyl-5,6,7,8-tetrahydro-naphthalen-2-yl)-ureido]-benzoic acid], the “selectivity of transactivation among RAR α, β and γ” value (from here on “selectivity”) [1] was “unexpectedly selective at activating transcription activity through the gamma receptor”, the “triglyceride levels expressed as a percentage relative to vehicle control (100%)” value ([2]; two weeks (10 doses), at the higher dose, FIG. 2) was under 100% and the “elevation of triglyceride levels relative to vehicle control (in words)” value ([2]; two weeks, 0.3, 1 and 3 mg/kg) was “did not significantly elevate triglycerides levels”. For the same molecule, the alveolar repair [3] was “significant”.

In the case of CC1(C)CCC(C)(C)c2cc(NC(=O)Nc3ccc(C(=O)O)cc3)ccc21 [Compound 39, reference compound], the “selectivity” value [1] is reported as “pan-agonists”.

For CN(C(=O)Nc1ccc(C(=O)O)cc1)c1ccc2c(c1)C(C)(C)CCC2(C)C [Compound 40, reference compound], the “selectivity” value [1] was “pan-agonists” and the “dose dependence of triglyceride levels” value ([2]; two weeks, 0.3, 1 and 3 mg/kg) was “triglyceride levels increasing with increasing dosage”.

In the case of CCCN(C(=O)Nc1ccc(C(=O)O)cc1)c1ccc2c(c1)C(C)(C)CCC2(C)C [Compound 55], the “selectivity” value [1] is reported as “unexpectedly selective at activating transcription activity through the gamma receptor” and the melting point is reported as 175 to 186 °C.

Molecule CCCCCN(C(=O)Nc1ccc(C(=O)O)cc1F)c1ccc2c(c1)C(C)(C)CCC2(C)C [Compound 57, 3-fluoro-4-[3-pentyl-3-(5,5,8,8-tetramethyl-5,6,7,8-tetrahydro-naphthalen-2-yl)-ureido]-benzoic acid] has a melting point of 150.9 to 157.4 °C.
